# Source: patent US8058475B2, “Substituted cyclohexylmethyl compounds” (Gruenenthal GmbH, priority 2005, dated 2011)
# Read-outs that look alike come from different tables or passages of the source.
# Biological target: human μ-opiate receptor (Homo sapiens, UniProt P35372)
# Test: Affinity for the human μ-opiate receptor ([3H]-naloxone displacement, SPA, CHO-K1 membrane preparation)
# Type: binding
# Details: for inhibition at 1 µM: read-out: μ-Opioid receptor, % inhibition [1 μM]; for Ki: read-out: μ-Opioid receptor, Ki
# [1] = 1 μM test substance, inhibition of specific [3H]-naloxone binding
# Chain of human μ-opiate receptor (P35372 whole entry): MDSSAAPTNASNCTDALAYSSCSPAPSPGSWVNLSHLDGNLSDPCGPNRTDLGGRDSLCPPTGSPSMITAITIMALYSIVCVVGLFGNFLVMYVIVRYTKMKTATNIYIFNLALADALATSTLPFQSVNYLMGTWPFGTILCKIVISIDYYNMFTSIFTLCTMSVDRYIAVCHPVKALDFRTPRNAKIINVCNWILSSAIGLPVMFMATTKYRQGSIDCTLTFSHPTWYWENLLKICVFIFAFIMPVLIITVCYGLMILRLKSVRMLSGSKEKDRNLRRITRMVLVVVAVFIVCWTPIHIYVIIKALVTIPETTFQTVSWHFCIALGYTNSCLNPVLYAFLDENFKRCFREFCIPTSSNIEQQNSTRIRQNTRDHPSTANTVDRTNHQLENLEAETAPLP
SMILES,inhibition at 1 µM [%],Ki [nM],"μ-Opioid receptor, % inhibition [1 μM] [%]",inhibition at 1 µM [1] [%]
"COc1ccc(C(=O)NCCC2CCC(C(c3ccccc3)N(C)C)CC2)c(OC)c1 (stereo not shown) [compound 478, N-{2-[4-(dimethylamino-phenyl-methyl)-cyclohexyl]-ethyl}-2,4-dimethoxy-benzamide]",95,27,–,–
"CN(C)C(c1cccs1)C1CCC(CCNC(=O)c2ccc(F)c(F)c2)CC1 (stereo not shown) [compound 446, N-{2-[4-(dimethylamino-thiophen-2-yl-methyl)-cyclohexyl]-ethyl}-3,4-difluoro-benzamide]",99,6.4,–,–
"CN(C)C(c1ccccc1)C1CCC(CNC(=O)Cc2ccccc2)CC1 (stereo not shown) [compound 306, N-[4-(dimethylamino-phenyl-methyl)-cyclohexylmethyl]-2-phenyl-acetamide]",98,9.9,–,–
"CN(C)C(c1ccccc1)C1CCC(CCNC(=O)c2cc3ccccc3s2)CC1 (stereo not shown) [compound 457, benzo[b]thiophene-2-carboxylic acid {2-[4-(dimethylamino-phenyl-methyl)-cyclohexyl]-ethyl}-amide]",91,40,–,–
"CCSc1ncccc1C(=O)NCC1CCC(C(c2ccccc2)N(C)C)CC1 (stereo not shown) [compound 310, N-[4-(dimethylamino-phenyl-methyl)-cyclohexylmethyl]-2-ethylsulfanyl-nicotinamide]",98,16,–,–
"CN(C)C(c1ccccc1)C1CCC(NC(=O)c2csc(-c3ccc4c(c3)CCO4)n2)CC1 (stereo not shown) [compound 289, 2-(2,3-dihydro-benzofuran-5-yl)-thiazole-4-carboxylic acid [4-(dimethylamino-phenyl-methyl)-cyclohexyl]-amide]",70,78,–,–
"Cc1oc(-c2ccccc2)cc1C(=O)NCC1CCC(C(c2ccccc2)N(C)C)CC1 (stereo not shown) [compound 345, 2-methyl-5-phenyl-furan-3-carboxylic acid [4-(dimethylamino-phenyl-methyl)-cyclohexylmethyl]-amide]",90,13,–,–
"CN(C)C(c1ccccc1)C1CCC(NC(=O)c2cc(F)ccc2C(F)(F)F)CC1 (stereo not shown) [compound 281, N-[4-(dimethylamino-phenyl-methyl)-cyclohexyl]-5-fluoro-2-trifluoromethyl-benzamide]",73,46,–,–
"CN(C)C(c1ccccc1)C1CCC(CCNC(=O)c2cccnc2Sc2ccc(Cl)cc2)CC1 (single isomer, unassigned) [compound 471, 2-(4-chloro-phenylsulfanyl)-N-{2-[4-(dimethylamino-phenyl-methyl)-cyclohexyl]-ethyl}-nicotinamide]",–,87,82,–
"CN(C)C(c1cccs1)C1CCC(CCNC(=O)c2c(Cl)cccc2Cl)CC1 (stereo not shown) [compound 431, 2,6-dichloro-N-{2-[4-(dimethylamino-thiophen-2-yl-methyl)-cyclohexyl]-ethyl}-benzamide]",93,26,–,–
"CN(C)C(c1cccc(F)c1)C1CCC(CCNC(=O)c2cc(F)c(Cl)cc2Cl)CC1 (single isomer, unassigned) [compound 439, 2,4-dichloro-N-(2-{4-[dimethylamino-(3-fluoro-phenyl)-methyl]-cyclohexyl}-ethyl)-5-fluoro-benzamide]",–,52,85,–
"Cc1cc(C2(O)CCC(C(c3ccc(Cl)cc3)N(C)C)CC2)ccc1F (stereo not shown) [compound 160, 4-[(4-chloro-phenyl)-dimethylamino-methyl]-1-(4-fluoro-3-methyl-phenyl)-cyclohexanol]",–,–,–,67
"CN(C)C(c1ccccc1)C1CCC(NC(=O)c2ccc(Cl)c(Cl)c2)CC1 (stereo not shown) [compound 189, 3,4-dichloro-N-[4-(dimethylamino-phenyl-methyl)-cyclohexyl]-benzamide]",99,11,–,–
"CN(C)C(c1cccc(F)c1)C1CCC(NC(=O)c2cc(Cl)cc(Cl)c2)CC1 (stereo not shown) [compound 243, 3,5-dichloro-N-{4-[dimethylamino-(3-fluoro-phenyl)-methyl]-cyclohexyl}-benzamide]",82,25,–,–
"CN(C)C(c1cccc(F)c1)C1CCC(CNC(=O)c2cccs2)CC1 (single isomer, unassigned) [compound 334, thiophene-2-carboxylic acid {4-[dimethylamino-(3-fluoro-phenyl)-methyl]-cyclohexylmethyl}-amide]",92,62,–,–
"CN(C)C(c1cccc(F)c1)C1CCC(CNC(=O)C2(c3ccc(Cl)cc3)CCCC2)CC1 (stereo not shown) [compound 327, 1-(4-chloro-phenyl)-cyclopentane-carboxylic acid {4-[dimethylamino-(3-fluoro-phenyl)-methyl]-cyclohexylmethyl}-amide]",94,63,–,–
"CN(C)C(c1ccccc1)C1CCC(CNC(=O)c2cccc(Br)c2)CC1 (stereo not shown) [compound 358, 3-bromo-N-[4-(dimethylamino-phenyl-methyl)-cyclohexylmethyl]-benzamide]",86,11,–,–

SMILES,inhibition at 1 µM [%],Ki [nM],"μ-Opioid receptor, % inhibition [1 μM] [%]",inhibition at 1 µM [1] [%]
"CN(C)C(c1cccs1)C1CCC(CNC(=O)Cc2cccs2)CC1 (stereo not shown) [compound 291, N-[4-(dimethylamino-thiophen-2-yl-methyl)-cyclohexylmethyl]-2-thiophen-2-yl-acetamide]",102,–,–,–
"CSc1ncccc1C(=O)NCC1CCC(C(c2ccccc2)N(C)C)CC1 (stereo not shown) [compound 299, N-[4-(dimethylamino-phenyl-methyl)-cyclohexylmethyl]-2-methylsulfanyl-nicotinamide]",100,1,–,–
"Cc1oc(-c2ccc(Cl)cc2)cc1C(=O)NC1CCC(C(c2cccs2)N(C)C)CC1 (stereo not shown) [compound 229, 5-(4-chloro-phenyl)-2-methyl-furan-3-carboxylic acid [4-(dimethylamino-thiophen-2-yl-methyl)-cyclohexyl]-amide]",86,39,–,–
"CN(C)C(c1ccc(Cl)cc1)C1CCC(CNC(=O)c2csc3ccccc23)CC1 (single isomer, unassigned) [compound 372, benzo[b]thiophene-3-carboxylic acid {4-[(4-chloro-phenyl)-dimethylamino-methyl]-cyclohexylmethyl}-amide]",–,33,84,–
"CN(C)C(c1cccs1)C1CCC(NC(=O)Cc2ccc(Cl)cc2)CC1 (stereo not shown) [compound 219, 2-(4-chloro-phenyl)-N-[4-(dimethylamino-thiophen-2-yl-methyl)-cyclohexyl]-acetamide]",89,56,–,–
"CN(C)C(c1ccccc1)C1CCC(NC(=O)Cc2cccs2)CC1 (stereo not shown) [compound 255, N-[4-(dimethylamino-phenyl-methyl)-cyclohexyl]-2-thiophen-2-yl-acetamide]",80,46,–,–
"CN(C)C(c1ccccc1)C1CCC(CNC(=O)c2ccc(F)c(F)c2)CC1 (single isomer, unassigned) [compound 294, N-[4-(dimethylamino-phenyl-methyl)-cyclohexylmethyl]-3,4-difluoro-benzamide]",101,8.3,–,–
"CN(C)C(c1cccc(F)c1)C1CCC(O)(Cc2ccccc2)CC1 (stereo not shown) [compound 152, 1-benzyl-4-[dimethylamino-(3-fluoro-phenyl)-methyl]-cyclohexanol]",–,–,–,63
"COc1cccc(CC(=O)NCCC2CCC(C(c3cccc(F)c3)N(C)C)CC2)c1 (stereo not shown) [compound 453, N-(2-{4-[dimethylamino-(3-fluoro-phenyl)-methyl]-cyclohexyl}-ethyl)-2-(3-methoxy-phenyl)-acetamide]",83,43,–,–
"CCC(C(=O)NC1CCC(C(c2ccccc2)N(C)C)CC1)c1ccccc1 (single isomer, unassigned) [compound 250, N-[4-(dimethylamino-phenyl-methyl)-cyclohexyl]-2-phenyl-butyramide]",–,36,81,–
"CN(C)C(c1ccccc1)C1CCC(CCNC(=O)c2cccc(Cl)c2)CC1 (single isomer, unassigned) [compound 398, 3-chloro-N-{2-[4-(dimethylamino-phenyl-methyl)-cyclohexyl]-ethyl}-benzamide]",–,7.4,101,–
"CN(C)C(c1cccc(F)c1)C1CCC(NC(=O)c2cc3ccccc3s2)CC1 (stereo not shown) [compound 231, benzo[b]thiophene-2-carboxylic acid {4-[dimethylamino-(3-fluoro-phenyl)-methyl]-cyclohexyl}-amide]",86,45,–,–
"Cc1cccc(C(=O)NCCC2CCC(C(c3ccc(F)cc3)N(C)C)CC2)c1 (stereo not shown) [compound 429, N-(2-{4-[dimethylamino-(4-fluoro-phenyl)-methyl]-cyclohexyl}-ethyl)-3-methyl-benzamide]",88,55,–,–
"Cc1ccc(C2(O)CCC(C(c3ccc(Cl)cc3)N(C)C)CC2)cc1 (stereo not shown) [compound 165, 4-[(4-chloro-phenyl)-dimethylamino-methyl]-1-p-tolyl-cyclohexanol]",–,–,–,52
"CN(C)C(c1ccccc1)C1CCC(CCNC(=O)c2csc(-c3ccc4c(c3)CCO4)n2)CC1 (stereo not shown) [compound 468, 2-(2,3-dihydro-benzofuran-5-yl)-thiazole-4-carboxylic acid {2-[4-(dimethylamino-phenyl-methyl)-cyclohexyl]-ethyl}-amide]",83,160,–,–
"CN(C)C(c1cccc(F)c1)C1CCC(CNC(=O)c2cc(Cl)cc(Cl)c2)CC1 (stereo not shown) [compound 371, 3,5-dichloro-N-{4-[dimethylamino-(3-fluoro-phenyl)-methyl]-cyclohexylmethyl}-benzamide]",84,130,–,–
"CN(C)C(c1ccccc1)C1CCC(CCNC(=O)c2cccs2)CC1 (stereo not shown) [compound 452, thiophene-2-carboxylic acid {2-[4-(dimethylamino-phenyl-methyl)-cyclohexyl]-ethyl}-amide]",99,12,–,–
